Measurements reported in patent publication US12383511B2, “Osteogenic agents and uses thereof” (GoldPorp Pharma Limited, priority 2022, dated 2025).
Values belong to the molecule of their own block, whether it stands above or below them.

Assays:
Assay type in all cases: cell-based
[1] = tested on: MC3T3-E1 osteoblast cells; assay: Osteoblast mineralization assay (Alizarin Red staining); settings: 5 μM compared with […]
Protocol: MC3T3-E1 cells were seeded at 1×10^5 cells per well in 24-well plates. […] […] Cells were washed twice with PBS and fixed with 10% formalin for 1 hour. Fixed cell was washed twice with distilled water and stained with 2% Alizarin Red S solution (pH 4.1) in the dark for 1 hour. Stain solution was removed and washed 4 times with distilled water.

MCF7 cells = assay: BrdU incorporation proliferation assay
Excerpt: The effect of F compounds on estrogen dependent cancer cells was investigated (FIG. 8). […] The fold increase of MCF7 proliferation was similar to that induced by estradiol treatment.

MDA-MB-231 cells = assay: BrdU incorporation proliferation assay; settings: 5 μM
MC3T3-E1 osteoblasts = assay: Alkaline phosphatase (ALP) activity assay in MC3T3-E1 osteoblasts; settings: for effect of antagonist on F4-induced ALP activity: 5 μM F4
Protocol: MC3T3-E1 (passage 4-10) was maintained in Minimal Essential Media (MEM) supplemented with 10% FBS, 1 mM Sodium Pyruvate and 1% 100 ug/ml penicillin-streptomycin (100 U/ml). All reagents are from GIBCO Life Technologies.
MC3T3-E1 cells were seeded at 1×10^5 cells per well in 24-well plate. […] After treatment, cells were washed twice with PBS and lysed with buffer contains 50 mM Tris pH7.4 and 0.1% Triton X-100. After 3 freeze-thaw cycles, 40 ul of cell lysate was mixed with 50 ul of 2× Assay buffer (2-Amino-2methyl-1-propanol, pH 10.4 with 4 mM MgCl2) and 10 ul of 0.1M 4-Nitrophenyl phosphate. Incubated in 37° C. and recorded at OD410.

[2] = tested on: estrogen responsive gene elements (ERE); assay: pERE-Luc reporter gene assay in MC3T3-E1; settings: ICI182780 10 nM and 1 μM
Protocol: MC3T3-E1 were seeded at 9.0×10^4 per well in 24-well plates. Twenty-four hours after cell seeding, cells were transiently transfected with 500 ng pERE-Luc (contains three repeats of estrogen-response element) by lipofectamine 2000 (Life Technologies) according to manufacturers' instruction (lipofectamine:DNA=3:1).

p38 = assay: Western blot of phosphorylated p38 and total p38; settings: with 5 μM F4, 15 and 30 min, MC3T3-E1 osteoblasts
Protocol: MC3T3-E1 were lysed with 20 mM Tris pH8.0, 137 mM NaCl, 2 mM EDTA, 1% Triton X-100 and 10% Glycerol with protease inhibitor cocktail (Roche, complete). Protein concentration was determined by Bradford Protein Assay (Bio-Rad) and equal amount of proteins (30 μg) was resolved by SDS-PAGE and transferred onto PVDF membrane. The membrane was blocked with 3% BSA in Tris-buffered saline containing 0.1% Tween 20 and incubated with primary antibody (1:1000) overnight at 4° C. then incubated with HRP-linked secondary antibody for 1 h. Chemiluminescence signals were detected using enhanced chemiluminescence reagents (GE Healthcare) on X-Ray films (Fujifilm).
The levels of phosphorylated p38 and total p38 were determined by immunoblotting experiments.

SMILES: C=Cc1cc(O)cc2ccc3c(C)c(O)ccc3c12 [F5, dehydroeffusol]
calcium deposition at higher vs lower concentration [1]: More calcium deposition | MCF7 cell proliferation induced by estradiol (MCF7 cells; 5 μM): significantly suppress | MCF7 cell proliferation (MCF7 cells; dose of 5 μM or higher): inhibited the proliferation | MCF7 cell proliferation (MCF7 cells; low dose of 0.3 μM): induced MCF7 cell proliferation | cell proliferation induced by 17beta-estradiol in MDA-MB-231 cells (ER negative) (MDA-MB-231 cells): had no effect

effect of antagonist on F4-induced ALP activity (MC3T3-E1 osteoblasts; day 7): inhibited
SMILES: C[C@]12CC[C@@H]3c4ccc(O)cc4C[C@@H](CCCCCCCCC[S+]([O-])CCCC(F)(F)C(F)(F)F)[C@H]3[C@@H]1CC[C@@H]2O (some centres unmarked) [ICI182780, reference compound]
effect of antagonist on F4-induced ALP activity (MC3T3-E1 osteoblasts; day 4): no effect | effect of antagonist on F4-stimulated ERE promoter activity ([2]; 5 μM F4): could be inhibited | effect of antagonist on estradiol-stimulated ERE-driven promoter activity [2]: inhibited

SMILES: C[S+]([O-])c1ccc(-c2nc(-c3ccncc3)c(-c3ccc(F)cc3)[nH]2)cc1 (centres unmarked) [SB203580, reference compound]
effect of MAP kinase inhibitor on F4-induced increases in ALP activity (MC3T3-E1 osteoblasts; with 5 μM F4, 2 days): significantly inhibited | levels of phosphorylated p38 in F4-treated cells on addition of inhibitor (p38): reduced the levels of phosphorylated p38
